Measurements reported in patent publication US8841456B2, “1,5-naphthyridine derivative or salt thereof” (FUJIFILM Corporation, priority 2011, dated 2014).
Read-outs that look alike come from different tables or passages of the source.

Legend:
human PI3Kα protein = target: T1, human PI3Kα protein (Homo sapiens, UniProt P42336); experiment: PI3Kα enzyme assay (ADP-Glo kinase assay); type: biochemical; conditions: 3 nM PI3Kα, 50 μM PIP2, 100 μM ATP
T1 construct: purchased Carna Biosciences, Inc; host or cells: Baculovirus expression system
T1 sequence (P42336 whole entry): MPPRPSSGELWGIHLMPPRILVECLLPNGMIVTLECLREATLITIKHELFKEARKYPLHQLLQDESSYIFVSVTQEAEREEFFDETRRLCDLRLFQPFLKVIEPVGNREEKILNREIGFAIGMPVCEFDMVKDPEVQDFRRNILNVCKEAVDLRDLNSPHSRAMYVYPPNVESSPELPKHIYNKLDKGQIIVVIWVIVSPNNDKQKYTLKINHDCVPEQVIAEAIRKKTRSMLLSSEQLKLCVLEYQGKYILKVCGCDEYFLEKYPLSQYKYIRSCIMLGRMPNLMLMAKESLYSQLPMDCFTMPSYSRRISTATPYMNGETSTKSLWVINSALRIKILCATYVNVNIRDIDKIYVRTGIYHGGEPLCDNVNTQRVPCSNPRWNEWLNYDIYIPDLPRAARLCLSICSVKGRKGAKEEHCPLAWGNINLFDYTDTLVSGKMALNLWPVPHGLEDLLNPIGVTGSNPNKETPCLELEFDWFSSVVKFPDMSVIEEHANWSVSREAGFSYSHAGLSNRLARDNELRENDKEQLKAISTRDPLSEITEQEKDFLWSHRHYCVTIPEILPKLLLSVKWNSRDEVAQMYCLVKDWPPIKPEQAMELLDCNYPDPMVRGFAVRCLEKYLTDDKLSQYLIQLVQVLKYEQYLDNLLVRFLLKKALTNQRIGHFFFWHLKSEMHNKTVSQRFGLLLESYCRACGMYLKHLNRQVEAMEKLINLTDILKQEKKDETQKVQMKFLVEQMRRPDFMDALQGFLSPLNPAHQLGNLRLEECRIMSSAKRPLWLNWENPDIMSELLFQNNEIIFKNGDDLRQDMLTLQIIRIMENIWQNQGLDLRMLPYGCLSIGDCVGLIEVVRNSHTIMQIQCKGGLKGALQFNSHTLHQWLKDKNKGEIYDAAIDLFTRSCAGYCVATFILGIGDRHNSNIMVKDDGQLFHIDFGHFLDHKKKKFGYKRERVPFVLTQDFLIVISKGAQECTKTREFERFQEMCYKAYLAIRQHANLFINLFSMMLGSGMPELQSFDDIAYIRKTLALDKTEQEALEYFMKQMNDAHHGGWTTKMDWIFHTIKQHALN
T1 sequence (P27986 whole entry partner): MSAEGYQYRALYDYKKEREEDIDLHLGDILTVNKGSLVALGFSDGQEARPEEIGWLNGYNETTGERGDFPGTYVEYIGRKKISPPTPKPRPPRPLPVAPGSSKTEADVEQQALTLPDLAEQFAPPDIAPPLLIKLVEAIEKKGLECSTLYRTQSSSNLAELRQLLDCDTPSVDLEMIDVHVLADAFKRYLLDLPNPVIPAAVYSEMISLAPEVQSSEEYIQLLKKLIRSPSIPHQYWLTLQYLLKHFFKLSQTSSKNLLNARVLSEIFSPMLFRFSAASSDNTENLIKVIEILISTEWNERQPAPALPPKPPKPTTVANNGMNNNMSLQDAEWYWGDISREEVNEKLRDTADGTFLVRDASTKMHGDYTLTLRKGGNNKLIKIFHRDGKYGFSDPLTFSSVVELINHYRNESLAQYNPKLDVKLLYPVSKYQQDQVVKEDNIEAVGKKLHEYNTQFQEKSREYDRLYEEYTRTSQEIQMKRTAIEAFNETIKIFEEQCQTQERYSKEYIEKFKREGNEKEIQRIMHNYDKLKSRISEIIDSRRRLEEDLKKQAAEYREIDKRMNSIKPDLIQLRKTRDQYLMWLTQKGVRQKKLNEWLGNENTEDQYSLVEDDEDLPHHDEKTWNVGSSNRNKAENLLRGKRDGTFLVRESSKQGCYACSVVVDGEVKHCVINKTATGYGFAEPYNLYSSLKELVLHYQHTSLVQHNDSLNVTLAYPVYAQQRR
Description: Evaluation of the PI3Kα inhibitory activity of the compound of the present invention was carried out according to the method as described below.
For the PI3Kα enzyme assay, biotinylated product of a human PI3Kα protein produced using a Baculovirus expression system (Carna Biosciences, Inc.) was used. Further, for the detection of the enzyme activity, an ADP-Glo kinase assay (PROMEGA Corporation) was used.
10 μL of a reaction solution (3 nM PI3Kα, 40 mM Tris-HCl, 20 mM MgCl2, 0.1% BSA, pH 7.5) including the human PI3Kα protein and a test compound at a predetermined concentration was incubated at room temperature for 15 minutes. Thereafter, 5 μL of a mixed solution of L-α-Phosphatidylinositol 4,5-diphosphate (PIP2) (SIGMA-ALDLICH) which was a substrate and ATP(SIGMA-ALDLICH) was added thereto to a final concentration of 50 μM and 100 μM, respectively, and the reaction solution was further incubated at 25° C. for 60 minutes to carry out an enzyme reaction.
After the reaction, 15 μL of an ADP-Glo reagent (PROMEGA Corporation) was added and the resulting liquid was incubated at room temperature for 60 minutes, whereby the enzyme reaction was stopped. Thereafter, after further adding 30 μL of a Kinase Detection Reagent (PROMEGA Corporation) and standing the resulting solution at room temperature for 40 minutes, ADP produced by the enzyme reaction was quantified by luminescence intensity.
For the measurement of luminescence intensity, EnVision (PerkinElmer, Inc.) was used.
(§1) The inhibitory activity of the compounds was evaluated using an IC50 (50% inhibitory concentration). The IC50 was calculated using XLfit (IDBS).

[1] = target: T2, glutathione S-transferase (GST)-fusion human ERK2 protein (Homo sapiens, UniProt P28482); experiment: ERK2 enzyme assay (LabChip mobility shift); type: biochemical; conditions: 2 nM ERK2, 4.25 μM FL-Peptide 8, 43 μM ATP
T2 construct: purchased Carna Biosciences, Inc; host or cells: E. coli expression system
T2 sequence (P28482 whole entry, the tested form may be a part): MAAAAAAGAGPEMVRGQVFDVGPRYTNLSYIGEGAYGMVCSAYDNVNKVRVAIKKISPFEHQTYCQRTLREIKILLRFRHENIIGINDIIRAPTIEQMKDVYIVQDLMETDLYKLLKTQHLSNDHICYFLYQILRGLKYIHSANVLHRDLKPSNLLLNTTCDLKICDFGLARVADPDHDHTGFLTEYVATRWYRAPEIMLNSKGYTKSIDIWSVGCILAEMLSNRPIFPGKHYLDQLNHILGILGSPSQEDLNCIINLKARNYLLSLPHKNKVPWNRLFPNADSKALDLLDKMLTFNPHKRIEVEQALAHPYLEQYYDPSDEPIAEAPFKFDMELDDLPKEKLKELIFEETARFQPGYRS
Description: Evaluation of the ERK2 inhibitory activity of the compound of the present invention was carried out according to the method as described below.
For the ERK2 enzyme assay, a glutathione S-transferase (GST)-fusion human ERK2 protein (Carna Biosciences, Inc.) produced using an E. coli expression system was used.
12 μL of the reaction solution (2 nM ERK2, 100 mM Hepes, 10 mM MgCl2, 1.5 mM DTT, 0.003% Brij35, pH 7.5) including the ERK2 protein and a test compound at a predetermined concentration was incubatedat room temperature for 15 minutes. Thereafter, 3 μL of a mixed solution of FL-Peptide 8 (5-FAM-IPTSPITTTYFFFKKK-COOH) (Caliper Lifescience) which was a substrate and ATP(SIGMA-ALDLICH) were added thereto to a final concentration of 4.25 μM and 43 μM, respectively. The reaction solution was further incubated at 25° C. for 120 minutes to carry out an enzyme reaction.
The enzyme reaction was stopped by adding 27 μL of a reaction-stopping solution (100 mM HEPES, 11.2 mM EDTA, 5.6% Brij35, pH 7.5) including a 0.5% Coating reagent 8 (PerkinElmer, Inc.) after the reaction. Thereafter, non-phosphorylated peptides and phosphorylated peptides were separated using LabChip Ez Reader (Caliper LifeScience, Inc.) to quantify the proportion of phosphorylated peptides.
as §1

[2] = IC50 class, read-out: PI3Kα Inhibitory Activity
[3] = IC50 class, read-out: ERK2 Inhibitory Activity

Compound | IC50 (human PI3Kα protein; [2]) | IC50 [1, 3] | IC50 (human PI3Kα protein; read-out: PI3Kα, IC50) | IC50 ([1]; read-out: ERK2, IC50)
O=C(NCC12CC3CC(CC(C3)C1)C2)Nc1ccc2ncc(-c3cn[nH]c3)cc2n1 [Compound 0187] | 1000 to 10000 nM | < 100 nM | – | –
O=C(Nc1ccc2ncc(-c3cn[nH]c3)cc2n1)NC1CCCCCC1 [Compound 0058] | < 100 nM | < 100 nM | – | –
CC(C)(C)NC(=O)Nc1ccc2ncc(-c3cnn(CCCN4CCNCC4)c3)cc2n1 [Compound 0164] | < 100 nM | < 100 nM | – | –
COc1ccc(Nc2cnc3ccc(NC(=O)NC4CCCC4)nc3c2)cc1 [Compound 0028] | < 100 nM | > 10000 nM | – | –
O=C(Nc1ccc2ncc(C(=O)N3CCOCC3)cc2n1)NC1CCCC1 [Compound 0141] | > 10000 nM | > 10000 nM | – | –
O=C(Nc1ccc2ncc(-c3cn[nH]c3)cc2n1)NC1CCN(Cc2ccccc2)C1 (stereo not drawn) [Compound 0069] | 100 to 1000 nM | < 100 nM | 133 nM | < 3 nM
CC(C)CC(C)NC(=O)Nc1ccc2ncc(-c3cn[nH]c3)cc2n1 (stereo not drawn) [Compound 0087] | < 100 nM | < 100 nM | – | –
O=C(NCCCN1CCCCC1)Nc1ccc2ncc(-c3cn[nH]c3)cc2n1 [Compound 0202] | 1000 to 10000 nM | 100 to 1000 nM | – | –
COC(=O)C#Cc1cnc2ccc(NC(=O)NC3CCCC3)nc2c1 [Compound 0127] | 100 to 1000 nM | 1000 to 10000 nM | – | –
CN1CCN(CCn2cc(-c3cnc4ccc(NC(=O)NC5CCCC5)nc4c3)cn2)CC1 [Compound 0223] | < 100 nM | < 100 nM | – | –
COc1cc(-c2cnc3ccc(NC(=O)NC4CCCC4)nc3c2)cnc1OC [Compound 0014] | 100 to 1000 nM | 100 to 1000 nM | – | –
Cn1cc(-c2cnc3ccc(NC(=O)NC4CCCC4)nc3c2)c(CO)n1 [Compound 0216] | < 100 nM | < 100 nM | – | –
COCCNC(=O)Nc1ccc2ncc(-c3cn[nH]c3)cc2n1 [Compound 0098] | 100 to 1000 nM | < 100 nM | – | –
Cc1nc2ccc(NC(=O)NC3CCCC3)nc2cc1-c1cnn(C)c1 [Compound 0236] | 100 to 1000 nM | > 10000 nM | – | –
O=C1CN(CCn2cc(-c3cnc4ccc(NC(=O)NC5CCCC5)nc4c3)cn2)CCN1 [Compound 0052] | < 100 nM | < 100 nM | – | –
O=C(Nc1ccc2ncc(-c3cn[nH]c3)cc2n1)N[C@@H]1CCNC1 [Compound 0073] | 1000 to 10000 nM | < 100 nM | – | –
O=C(Nc1ccc2ncc(N3CCOCC3)cc2n1)NC1CCCC1 [Compound 0008] | < 100 nM | < 100 nM | – | –
O=C(NCC1CCCCC1)Nc1ccc2ncc(-c3cn[nH]c3)cc2n1 [Compound 0063] | 100 to 1000 nM | < 100 nM | – | –
CC1CN(c2cnc3ccc(NC(=O)NC4CCCC4)nc3c2)CCO1 (stereo not drawn) [Compound 0090] | < 100 nM | 100 to 1000 nM | – | –
COc1nc2ccc(NC(=O)NC3CCCC3)nc2cc1-c1cnn(C)c1 [Compound 0234] | 1000 to 10000 nM | > 10000 nM | – | –
O=C(Nc1ccc2ncc(-c3ccncc3)cc2n1)NC1CCCC1 [Compound 0007] | < 100 nM | < 100 nM | – | –
COc1ccc(CCCCNC(=O)Nc2ccc3ncc(-c4cn[nH]c4)cc3n2)cc1 [Compound 0173] | 100 to 1000 nM | < 100 nM | – | –
O=C1CN(c2cnc3ccc(NC(=O)NC4CCCC4)nc3c2)CCN1 [Compound 0142] | < 100 nM | 100 to 1000 nM | – | –
Cc1c(-c2cnn(C)c2)cnc2ccc(NC(=O)NC3CCCC3)nc12 [Compound 0237] | < 100 nM | < 100 nM | – | –
CN(C)Cc1nn(C)cc1-c1cnc2ccc(NC(=O)NC3CCCC3)nc2c1 [Compound 0217] | < 100 nM | 100 to 1000 nM | – | –
Cc1noc(C)c1-c1cnc2ccc(NC(=O)NC3CCCC3)nc2c1 [Compound 0050] | 100 to 1000 nM | 100 to 1000 nM | – | –
